Here are results for 15 compounds from BindingDB's records for doi:10.1016/j.bmcl.2004.03.096 (The University of Newcastle, 2004).

As usually defined, the pIC50 is −log10 of the IC50, conventionally taken in molar units. Read a low pIC50 as a large IC50.

pIC50: −log10 of the molar value.

One assay is described as follows: Concentration required against dynamin-1 GTPase activity of sheep brain.
As to `CCCCCCCCCCCCCCN`, the pIC50 was 4.83.

`NCCCCCCCCCCCCN` [1,12-diaminododecane]: the pIC50 is 4.40.

In the case of `CCCCCCCCCCCCCCOC(CN)CN` [2-Tetradecyloxy-propane-1,3-diammonium chloride], the pIC50 is 5.13.

On to `CCCCCCCCCCCCCC[N+](C)(C)CCO` [(2-Hydroxy-ethyl)-dimethyl-tetradecyl-ammonium; bromide], for which the pIC50 is 5.03.

In the case of `CCCC/C=C\C/C=C\C/C=C\C/C=C\CCCC(=O)NCCF` [(5Z,8Z,11Z,14Z)-Nonadeca-5,8,11,14-tetraenoic acid (2-fluoro-ethyl)-amide], the pIC50 is under 3.52.

In turn, `CCCCCCCCCCCCCC[N+](C)(C)CCCC` [Butyl-dimethyl-tetradecyl-ammonium; bromide] showed a pIC50 of 5.10.

`CCCCCCCCCCCCCC[N+](C)(C)CCC` [Dimethyl-propyl-tetradecyl-ammonium; bromide] showed a pIC50 of 5.05.

On to `CCCCCCCCCCCC[N+](C)(C)CC` [Dodecyl-ethyl-dimethyl-ammonium; bromide], for which the pIC50 was 4.99.

As for `CCCCCCCCCCCCCCN` [Tetradecylamine], the pIC50 was 4.69.

`CCCCCCCCCCCCCCCC[P+](CCCC)(CCCC)CCCC` [Tributyl-hexadecyl-phosphonium; bromide] had a pIC50 of 4.99.

`CCCCCCCCCCCCC(=O)OCCN(C)C` [Tridecanoic acid 2-dimethylamino-ethyl ester]: the pIC50 was 4.64.

With `CCCCCCCCCCCCC(=O)NCCN(C)C` [Tridecanoic acid (2-dimethylamino-ethyl)-amide], the pIC50 was 5.05.

`CCCCCCCCCCCCCCCC[N+](CC)(CC)CC` [Triethyl-hexadecyl-ammonium; bromide] had a pIC50 of 5.02.

In turn, `CCCCCCCCCCCCCC[N+](CC)(CC)CC` [Triethyl-tetradecyl-ammonium; bromide] had a pIC50 of 5.07.

Test in another assay: as above
This is another data set of the same source.
Compound `CCCCCCCCCCCCCCN` had a pIC50 of 5.06.

Another assay can be described thus: Concentration required against dynamin-1 GTPase activity of sheep brain; increased dynamin I GTPase activity at 30 uM.
`CCCC/C=C\C[C@@H](O)/C=C/C=C/C=C\[C@@H](O)CCCC(=O)O` [(6Z,8E,10E,14Z)-(5S,12R)-5,12-Dihydroxy-nonadeca-6,8,10,14-tetraenoic acid]: the pIC50 was under 3.52.
